Reference: patent US20220409727A1, “Metal Complexes Bearing Bisstyryl-Bipyridine Ligand and Their Use as Photosensitizer Agent in One and Two-Photon Photodynamic Therapy” (Paris Sciences et Lettres, priority 2019, published 2022)
Where two headings read alike, the source gives them in different places.

Columns and labels:
[1] = Emission measurement in CH3CN; type: physicochemical; conditions: room temperature, excitation at 355 nm
Method: The absorption of the samples was measured with a SpectraMax M2 Spectrometer (Molecular Devices). The emission was measured by irradiation of the sample in fluorescence quartz cuvettes (width 1 cm) using a NT342B Nd-YAG pumped optical parametric oscillator (Ekspla) at 355 nm. Luminescence was focused and collected at right angle to the excitation pathway and directed to a Princeton Instruments Acton SP-2300i monochromator. As a detector, a XPI-Max 4 CCD camera (Princeton Instruments) has been used.

[2] = system: mouse colon carcinoma (CT-26) cells; assay: (Photo-)cytotoxicity on 2D cell monolayers, resazurin assay, CT-26; conditions: for PI (480 nm): CT-26, dark vs 480 nm (10 min, 3.1 J/cm^2); for PI (540 nm): CT-26, dark vs 540 nm (40 min, 9.5 J/cm^2); for IC50: compounds 1-3 as chloride salts
[3] = system: non-cancerous retinal pigment epithelium (RPE-1) cells; assay: (Photo-)cytotoxicity on 2D cell monolayers, resazurin assay, RPE-1; conditions: for PI (480 nm): RPE-1, dark vs 480 nm (10 min, 3.1 J/cm^2); for PI (540 nm): RPE-1, dark vs 540 nm (40 min, 9.5 J/cm^2);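 for all read-outs here: cells exposed to compound 4 h, medium exchanged, then irradiated or kept dark, 44 h further growth, viability by resorufin fluorescence (ex 540 nm, em 590 nm)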
Method: The human glioblastoma astrocytoma (U373) cell line was cultured in MEM medium supplemented with 10% FBS, 1% NEAA (non-essential amino-acids) and 1% penicillin/streptomycin. […] The human retinal epithelial cells (RPE-1, non-cancerous cells immortalized with hTERT) were cultured in DMEM-F12 medium supplemented with 10% FBS and 1% penicillin/streptomycin. All cell lines were obtained from the American Type Culture Collection (ATCC) and cultured at 37° C. and 5% CO2. Before an experiment, the cells were passaged three times.
The cytotoxicity of the compounds was assessed by measuring cell viability using a fluorometric resazurin assay. The cultivated cells were seeded in triplicates in 96 well plates with a density of 4000 cells per well in 100 μL of media. After 24 h, the medium was removed and the cells were treated with increasing concentrations of the compound diluted in cell media achieving a total volume of 200 μL. The cells were incubated with the compound for 4 h. After this time, the media was removed and replaced with 200 μL of fresh medium. For the phototoxicity studies, the cells were exposed to light with an Atlas Photonics LUMOS BIO irradiator. Each well was constantly illuminated with either a 480 nm or 540 nm irradiation. During this time, the temperature was maintained constantly at 37° C. The cells were grown in the incubator for additional 44 h. For the determination of the dark cytotoxicity, the cells were not irradiated and after the medium exchange directly incubated for 44 h. After this time, the medium was replaced with fresh medium containing resazurin with a final concentration of 0.2 mg/mL. After 4 h incubation, the amount of the fluorescent product resorufin was determined upon excitation at 540 nm and measurement its emission at 590 nm using a SpectraMax M2 Microplate Reader (Molecular Devices).
The obtained data was analyzed with the GraphPad Prism software.

[4] = system: human glioblastoma astrocytoma (U373) cells; assay: (Photo-)cytotoxicity on 2D cell monolayers, resazurin assay, U373; conditions: for PI (480 nm): U373, dark vs 480 nm (10 min, 3.1 J/cm^2); for PI (540 nm): U373, dark vs 540 nm (40 min, 9.5 J/cm^2); for IC50: compounds 1-3 as chloride salts
[5] = system: human glioblastoma astrocytoma (U373) cells
[6] = Luminescence lifetime measurements; type: physicochemical; conditions: excitation at 355 nm; for τ/ns air (Lifetime): air saturated CH3CN; for τ/ns degassed (Lifetime): degassed CH3CN
Method: For the determination of the lifetimes, the samples were prepared in an air saturated and in a degassed CH3CN solution with an absorbance of 0.2 at 355 nm. This solution was irradiated in fluorescence quartz cuvettes (width 1 cm) using a NT342B Nd-YAG pumped optical parametric oscillator (Ekspla) at 355 nm. The emission signal was focused and collected at right angle to the excitation pathway and directed to a Princeton Instruments Acton SP-2300i monochromator. As a detector a R928 photomultiplier tube (Hamamatsu) has been used.

[7] = read-out: IC50 540 nm (40 min, 9.5 J/cm^2), CT-26, irradiation 540 nm (40 min, 9.5 J/cm^2)
[8] = read-out: IC50 dark, CT-26, dark, 4 h incubation
[9] = read-out: IC50 480 nm (10 min, 3.1 J/cm^2), U373, irradiation 480 nm (10 min, 3.1 J/cm^2)
[10] = read-out: IC50 dark, U373, dark, 4 h incubation

Row | SMILES | λem/nm (Emission maximum) [1] | PI (480 nm) [2] | PI (540 nm) [2] | IC50 [2, 7] | IC50 [2, 8] | PI (480 nm) [3] | PI (540 nm) [3] | PI (480 nm) [4] | PI (540 nm) [4] | IC50 [4, 9] | IC50 [4, 10] | IC50 [5] | τ/ns air (Lifetime) [6] | τ/ns degassed (Lifetime) [6]
1 | COc1ccc(/C=C/c2ccnc(-c3cc(/C=C/c4ccc(OC)cc4)ccn3)c2)cc1.COc1ccc(/C=C/c2ccnc(-c3cc(/C=C/c4ccc(OC)cc4)ccn3)c2)cc1.F[P-](F)(F)(F)(F)F.F[P-](F)(F)(F)(F)F.[Ru+2].c1ccc(-c2ccccn2)nc1 [Compound 5, [Ru(bipy)((E,E′)-4,4′-Bis[p-methoxystyryl]-2,2′-bipyridine)2][PF6]2] | 674 nm | >19.6 | >16.1 | 6.2 ± 1 µM | > 100 µM | >9.8 | >7.9 | >6.5 | >5.6 | 15.3 ± 2.2 µM | > 100 µM | 17.8 ± 3.2 µM | 36 ns | 231 ns
2 | CN(C)c1ccc(/C=C/c2ccnc(-c3cc(/C=C/c4ccc(N(C)C)cc4)ccn3)c2)cc1.F[P-](F)(F)(F)(F)F.F[P-](F)(F)(F)(F)F.[Ru+2].c1ccc(-c2ccnc3c2ccc2c(-c4ccccc4)ccnc23)cc1.c1ccc(-c2ccnc3c2ccc2c(-c4ccccc4)ccnc23)cc1 [Compound 10, [Ru(4,7-Diphenyl-1,10-phenanthroline)2((E,E′)-4,4′-Bis[p-(N,N-dimethylamino)styryl]-2,2′-bipyridine)][PF6]2] | 698 nm | 4.0 | 4.7 | 1.1 ± 0.4 µM | 5.2 ± 0.8 µM | 8.7 | 7.4 | 7.6 | 6.5 | 1.8 ± 0.3 µM | 13.7 ± 1.1 µM | 2.1 ± 0.4 µM | 72 ns | 339 ns
3 | CN(C)c1ccc(/C=C/c2ccnc(-c3cc(/C=C/c4ccc(N(C)C)cc4)ccn3)c2)cc1.F[P-](F)(F)(F)(F)F.F[P-](F)(F)(F)(F)F.[Ru+2].c1cnc2c(c1)ccc1cccnc12.c1cnc2c(c1)ccc1cccnc12 [Compound 8, [Ru(phen)2((E,E′)-4,4′-Bis[p-(N,N-dimethylamino)styryl]-2,2′-bipyridine)][PF6]2] | 698 nm | >12.2 | >12.8 | 7.8 ± 0.9 µM | > 100 µM | >10.9 | >6.4 | >8.5 | >7.5 | 11.7 ± 1.5 µM | > 100 µM | 13.3 ± 2.4 µM | 136 ns | 334 ns
4 | CN(C)c1ccc(/C=C/c2ccnc(-c3cc(/C=C/c4ccc(N(C)C)cc4)ccn3)c2)cc1.CN(C)c1ccc(/C=C/c2ccnc(-c3cc(/C=C/c4ccc(N(C)C)cc4)ccn3)c2)cc1.F[P-](F)(F)(F)(F)F.F[P-](F)(F)(F)(F)F.[Ru+2].c1ccc(-c2ccccn2)nc1 [Compound 4, [Ru(bipy)((E,E′)-4,4′-Bis[p-(N,N-dimethylamino)styryl]-2,2′-bipyridine)2][PF6]2] | 703 nm | >13.7 | >10.4 | 9.6 ± 1.9 µM | > 100 µM | >9.2 | >6.8 | >7.0 | >5.3 | 14.3 ± 2.4 µM | > 100 µM | 19 ± 2.8 µM | 69 ns | 417 ns
5 | COc1ccc(C=Cc2ccnc(-c3cc(C=Cc4ccc(OC)cc4)ccn3)c2)cc1.F[P-](F)(F)(F)(F)F.F[P-](F)(F)(F)(F)F.[Ru+2].c1ccc(-c2ccnc3c2ccc2c(-c4ccccc4)ccnc23)cc1.c1ccc(-c2ccnc3c2ccc2c(-c4ccccc4)ccnc23)cc1 [Compound 11, [Ru(4,7-Diphenyl-1,10-phenanthroline)2((E,E′)-4,4′-Bis[p-methoxystyryl]-2,2′-bipyridine)][PF6]2] | 663 nm | 17.2 | 14.3 | 0.6 ± 0.2 µM | 8.6 ± 0.9 µM | 23.1 | 29.7 | 20.6 | 26.4 | 0.9 ± 0.2 µM | 18.5 ± 1 µM | 0.7 ± 0.3 µM | 108 ns | 679 ns
6 | COc1ccc(/C=C/c2ccnc(-c3cc(/C=C/c4ccc(OC)cc4)ccn3)c2)cc1.F[P-](F)(F)(F)(F)F.F[P-](F)(F)(F)(F)F.[Ru+2].c1cnc2c(c1)ccc1cccnc12.c1cnc2c(c1)ccc1cccnc12 [Compound 9, [Ru(phen)2((E,E′)-4,4′-Bis[p-methoxystyryl]-2,2′-bipyridine)][PF6]2] | 663 nm | >90.9 | >111.1 | 0.9 ± 0.4 µM | > 100 µM | >41.7 | >47.6 | >40.0 | >47.6 | 2.5 ± 0.9 µM | > 100 µM | 2.1 ± 0.7 µM | 193 ns | 669 ns
7 | CN(C)c1ccc(/C=C/c2ccnc(-c3cc(/C=C/c4ccc(N(C)C)cc4)ccn3)c2)cc1.F[P-](F)(F)(F)(F)F.F[P-](F)(F)(F)(F)F.[Ru+2].c1ccc(-c2ccccn2)nc1.c1ccc(-c2ccccn2)nc1 [Compound 6, [Ru(bipy)2((E,E′)-4,4′-Bis[p-(N,N-dimethylamino)styryl]-2,2′-bipyridine)][PF6]2] | 697 nm | >41.7 | >32.3 | 3.1 ± 0.3 µM | > 100 µM | >13.7 | >12.3 | >12.0 | >9.3 | 8.3 ± 1.1 µM | > 100 µM | 10.7 ± 1.9 µM | 54 ns | 405 ns
